These results are taken from patent US10287267B2, “Isoquinolin-3-yl carboxamides and preparation and use thereof” (Samumed, LLC, priority 2016, dated 2019).

Experiment [1] relates to Wnt pathway (Sp5-Luc reporter, TCF/LEF binding sites) in SW480 colon carcinoma cells. Description: Screening assay for Wnt activity: Sp5-Luc reporter gene assay.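 For all read-outs here: firefly luciferase luminescence read in stably transduced SW480 cells carrying the Sp5 promoter reporter with eight TCF/LEF sites, compounds given in 0.1% DMSO final.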 The format is cell-based, human. Particulars: Homo sapiens; for EC50: Sp5-Luc reporter, SW480 cells, 36 to 48 hours; for inhibition at 10 µM: SW480, read-out: percent inhibition at 10 μM. (A reporter such as luciferase makes a cellular process visible.)
Experimental: The screening assay for Wnt activity is described as follows.
Following incubation, 15 μl of BriteLite Plus luminescence reagent (Perkin Elmer) was added to each well of the 384-well assay plates. The plates were placed on an orbital shaker for 2 min and then luminescence was quantified using the Envision (Perkin Elmer) plate reader.

Experiment [2] concerns the target recombinant DYRK1A kinase (Homo sapiens (Human), UniProt Q13627). Description: DYRK1A kinase assay (Ser/Thr 18 peptide Z-lyte FRET).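 Note: Read-out is the coumarin to fluorescein emission ratio, referenced to unphosphorylated (0%) and phosphorylated (100%) Ser/Thr 18 peptide controls, values from dose-response curves by non-linear regression.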 The format is biochemical. Conditions: 30 μM ATP, 1 h room temperature.
Experiment [3] has as its target recombinant GSK3β kinase (Homo sapiens (Human), UniProt P49841). Description: GSK3β kinase assay (Ser/Thr 09 peptide Z-lyte FRET).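 Note: kinase activity read as coumarin to fluorescein emission ratio, 11-point threefold dilutions from 10 µM to 0.0003 µM in duplicate, unphosphorylated and phosphorylated peptide as 0% and 100% controls.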 Particulars: 46 μM ATP, 1 h room temperature. Type of experiment: biochemical.
Experiment [4] relates to Tau phosphorylation at Ser396 (pSer396). Description: Tau phosphorylation assay (pSer396 ELISA / western blot) in SH-SY5Y cells.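 Note: EC50 for reduction of Tau pSer396 in lysed cells, measured by colorimetric ELISA or chemiluminescent western blot, both using the same pSer396 antibody.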 Particulars: Homo sapiens, read-out: pSer396 Tau EC50. The format is cell-based, human. In general terms: In an ELISA, binding on a coated surface is turned into a signal by an enzyme label.
Experimental: Two days before treatment, cells were seeded onto 96 well plates at 5×10^4 cells/well.
Wells were visually checked for cell death or change in morphology and supernatants were tested for cytotoxicity by measurement of lactate dehydrogenase release (LDH, CytoToxOne kit, Promega) if necessary.
Cells were lysed with RIPA buffer complemented with phosphatase and protease inhibitors then lysates were spun down at 12,000 g for 10 min to remove any cellular debris. Lysates are then either directly tested for pSer396 by ELISA (Life Technology, Kit KHB7031) or loaded on NuPage Bis-Tris gels for western blot analysis. Colorimetric detection of ELISA signal is performed by Cytation3 plate reader (Biotek) and the chemiluminescence signal for HRP-linked antibodies used in western blotting is detected using a Carestream Image Station. The same pSer396 antibody is used for detection of pTau in both assays.
The test system of experiment [5] is SW480 colon carcinoma cells. Briefly: Cell viability assay (CellTiter-Glo). Type of experiment: cell-based, human. Conditions: Homo sapiens; for EC50: 96 h, SW480 cells, CellTiter-Glo, four days incubation; for inhibition at 10 µM: SW480, read-out: percent inhibition at 10 μM. A general note: ATP-based viability assays read luminescence as a measure of living cells.

In experiment [6] the test system is α-smooth muscle actin (αSMA) positive LL29 cells. Briefly: Inhibition of fibrotic process: αSMA in TGF-β1 treated primary human fibroblasts from IPF patients.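 For all read-outs here: controls were TGF-β1 stimulated wells with DMSO vehicle (positive) and cells given DMSO alone (negative), cultured in F12 medium with 1% fetal bovine serum.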 The format is cell-based. Conditions: Homo sapiens, Fibroblast; for EC50: 96 h, Table 8, LL29 fibroblasts from IPF patients, TGF-β1 20 ng/mL, 4 days, dose-response 10 μM to 0.94 nM; for inhibition at 10 µM: read-out: percent value in parentheses beside EC50 >10 μM.

Experiment [7] has as its system IL-6. Briefly: IL-6 inhibition in LPS-stimulated human peripheral blood mononuclear cells (HTRF).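 For all read-outs here: IL-6 detected by HTRF with an XL665- and Cryptate-labelled anti-IL-6 antibody pair, samples run in duplicate, EC50 obtained from a four-parameter Levenberg-Marquardt curve fit.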 The format is cell-based. Conditions: Homo sapiens, PBMC; for inhibition at 10 µM: read-out: percent value in parentheses beside EC50 >10 μM; for EC50: Table 9, huPBMCs, LPS 50 ng/mL, 22 hours, dose-response starting from 10 μM.
Experimental: After 22 hour incubation, a mixture of anti-IL6 XL665 and anti-IL-6 Cryptate diluted in reconstitution buffer (Catalog #62IL6PEC, Cisbio Inc., Bedford, Mass.) was added to each well. […] All samples were processed in duplicate. […] EC50 was determined using software generated by Dotmatics Limited (Windhill Bishops Stortford Herts, UK) using the Levenberg-Marquardt 4 parameter fitting procedure with finite different gradients.
The mark [8] stands for this setting: SH-SY5Y cells, overnight (16-18 h) exposure.

Read-outs that look alike come from different tables or passages of the source.

recombinant GSK3β kinase, sequence (P49841 whole entry): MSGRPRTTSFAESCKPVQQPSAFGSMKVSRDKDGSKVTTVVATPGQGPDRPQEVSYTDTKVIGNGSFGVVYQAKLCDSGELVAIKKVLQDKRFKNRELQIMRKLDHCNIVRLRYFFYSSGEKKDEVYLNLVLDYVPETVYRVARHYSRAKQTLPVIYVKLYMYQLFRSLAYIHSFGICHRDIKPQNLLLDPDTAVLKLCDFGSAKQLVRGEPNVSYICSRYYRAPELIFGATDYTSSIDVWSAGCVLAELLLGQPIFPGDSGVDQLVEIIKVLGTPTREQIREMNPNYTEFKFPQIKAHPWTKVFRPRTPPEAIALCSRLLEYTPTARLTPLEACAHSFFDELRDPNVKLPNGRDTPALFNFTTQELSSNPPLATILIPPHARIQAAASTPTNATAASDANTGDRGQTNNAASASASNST

`Cn1ncc(-c2ccc3cnc(NC(=O)C4CC5(C4)CN(C(=O)OC(C)(C)C)C5)cc3c2)c1CN1CCCCC1` [Compound 992, tert-Butyl 6-((6-(1-methyl-5-(piperidin-1-ylmethyl)-1H-pyrazol-4-yl)isoquinolin-3-yl)carbamoyl)-2-azaspiro[3.3]heptane-2-carboxylate]: the EC50 (in general, the concentration giving half of the maximal effect) in experiment [1] came to 3210 nM; in experiment [2], 25.3 nM; in experiment [3] it was 14 nM; in experiment [4] (setting [8]), 350 nM; in experiment [5], 5600 nM; in experiment [6], 2970 nM. For the same compound, the EC50 in experiment [7] is above 10000 nM. In experiment [7], the inhibition at 10 µM amounted to 2.6%.

For `Cc1nnc(-c2ccc3cnc(NC(=O)C4CCN(C(=O)c5ccccc5)CC4)cc3c2)s1` [Compound 921, 1-Benzoyl-N-(6-(5-methyl-1,3,4-thiadiazol-2-yl)isoquinolin-3-yl)piperidine-4-carboxamide], the EC50 in experiment [1] was determined as 779 nM; in experiment [2], 2.1 nM; in experiment [3], 5 nM; in experiment [4] (setting [8]), 109 nM; in experiment [5] it was 1620 nM; in experiment [6] it was 75 nM. The EC50 in experiment [7] is above 10000 nM. In experiment [7], the inhibition at 10 µM stood at 9.9%.

As to `Cn1cc(-c2ccc3cnc(NC(=O)CN4CCCCC4)cc3c2)nn1` [Compound 276, N-(6-(1-methyl-1H-1,2,3-triazol-4-yl)isoquinolin-3-yl)-2-(piperidin-1-yl) acetamide], the EC50 is 5180 nM in experiment [1]; 5.1 nM in experiment [2]; 6 nM in experiment [3]; 150 nM in experiment [4] (setting [8]); above 10000 nM in experiment [5]; 336 nM in experiment [6]. Further, the midpoint of the response in experiment [7], the EC50, lay at 2920 nM. For the same compound, the inhibition at 10 µM in experiment [5] was 29.6%.

`O=C(Nc1cc2cc(-c3cncs3)ccc2cn1)C1CNC1` [Compound 713, N-(6-(Thiazol-5-yl)isoquinolin-3-yl)azetidine-3-carboxamide]: the EC50 in experiment [1] is 9250 nM; in experiment [2], 3.1 nM; in experiment [3] it was 98 nM; in experiment [4] (setting [8]), 5000 nM; in experiment [5] it was 6980 nM; in experiment [6], above 10000 nM. Besides, in experiment [7], the EC50 was determined as 3630 nM. The inhibition at 10 µM in experiment [6] amounted to 37.6%.

Consider `O=C(Nc1cc2cc(-c3cnc4n3CCNC4)ccc2cn1)C1CCN(C(=O)c2ccccc2)CC1` [Compound 991, 1-Benzoyl-N-(6-(5,6,7,8-tetrahydroimidazo[1,2-a]pyrazin-3-yl)isoquinolin-3-yl)piperidine-4-carboxamide], for which the EC50 in experiment [1] is 1700 nM; in experiment [2], 3.3 nM; in experiment [3], 29 nM; in experiment [4] (setting [8]), 10000 nM; in experiment [5] it was 3960 nM; in experiment [6], 2680 nM. The same compound gave an EC50 in experiment [7] of 3240 nM.

For `CC(C)CN1CCC(F)(C(=O)Nc2cc3cc(-n4ccnn4)ccc3cn2)CC1` [Compound 1074, N-(6-(1H-1,2,3-triazol-1-yl)isoquinolin-3-yl)-4-fluoro-1-isobutylpiperidine-4-carboxamide], the inhibition at 10 µM in experiment [1] turned out to be 19.7%; in experiment [5], 25%; in experiment [7], 5.6%. Moreover, the EC50 in experiment [1] was above 10000 nM; in experiment [2] it was 6.9 nM; in experiment [3] it was 278 nM; in experiment [4] (setting [8]), 1300 nM; in experiment [5], above 10000 nM; in experiment [6] it was above 10000 nM. In experiment [7], this compound registered an EC50 above 10000 nM.

For `Cn1cc(-c2ccc3cnc(NC(=O)OC(C)(C)C)cc3c2)cn1` [Compound 1025, tert-Butyl (6-(1-methyl-1H-pyrazol-4-yl)isoquinolin-3-yl)carbamate], the EC50 is above 10000 nM in experiment [1]; 78 nM in experiment [2]; 100 nM in experiment [3]; above 10000 nM in experiment [4] (setting [8]); above 10000 nM in experiment [6]; above 10000 nM in experiment [7]. Moreover, the inhibition at 10 µM in experiment [6] amounted to 31.4%; in experiment [7], 13.6%.

For `Cn1cc(-c2ccc3cnc(NC(=O)CN4CCC(C(F)F)CC4)cc3c2)cn1` [Compound 295, 2-(4-(Difluoromethyl)piperidin-1-yl)-N-(6-(1-methyl-1H-pyrazol-4-yl)isoquinolin-3-yl)acetamide], the EC50 is 2570 nM in experiment [1]; 2.8 nM in experiment [2]; 20 nM in experiment [3]; 430 nM in experiment [4] (setting [8]); 4460 nM in experiment [6]; above 10000 nM in experiment [7]. Moreover, the inhibition at 10 µM in experiment [7] came to 5.9%.

As to `CC(F)(F)CN1CCC(C(=O)Nc2cc3cc(-c4cnco4)ccc3cn2)CC1` [Compound 1057, 1-(2,2-Difluoropropyl)-N-(6-(oxazol-5-yl)isoquinolin-3-yl)piperidine-4-carboxamide], in experiment [1], the inhibition at 10 µM was found to be 5%. Also, the EC50 in experiment [1] is above 10000 nM; in experiment [2], 2.7 nM; in experiment [3], 97 nM; in experiment [4] (setting [8]), 342 nM; in experiment [5] it was 4500 nM; in experiment [7] it was 3200 nM.

Consider `Cc1nnc(-c2ccc3cnc(NC(=O)CN4C5CCC4COC5)cc3c2)s1` [Compound 962, 2-(3-Oxa-8-azabicyclo[3.2.1]octan-8-yl)-N-(6-(5-methyl-1,3,4-thiadiazol-2-yl)isoquinolin-3-yl)acetamide], for which the inhibition at 10 µM in experiment [1] was determined as 45%; in experiment [5], 30.9%; in experiment [7], 9.6%. Besides, the EC50 was above 10000 nM in experiment [1]; 23.6 nM in experiment [2]; 57 nM in experiment [3]; 447 nM in experiment [4] (SH-SY5Y); above 10000 nM in experiment [5]; above 10000 nM in experiment [7].

`CNc1ncc(-c2ccc3cnc(NC(=O)C4CCNCC4)cc3c2)s1` [Compound 1040, N-(6-(2-(Methylamino)thiazol-5-yl)isoquinolin-3-yl)piperidine-4-carboxamide]: the EC50 was 1210 nM in experiment [1]; 4.8 nM in experiment [2]; 98 nM in experiment [3]; 1600 nM in experiment [4] (setting [8]); 2680 nM in experiment [5]; 1180 nM in experiment [7].

Take `O=C(Nc1cc2cc(-c3cnco3)ccc2cn1)C1CCOCC1` [Compound 976, N-(6-(Oxazol-5-yl)isoquinolin-3-yl)tetrahydro-2H-pyran-4-carboxamide]: the EC50 was 2960 nM in experiment [1]; 6.1 nM in experiment [2]; 146 nM in experiment [3]; 536 nM in experiment [4] (setting [8]); 3880 nM in experiment [5]; 1170 nM in experiment [6].

With `Cn1ncc(-c2ccc3cnc(NC(=O)C4CCOCC4)cc3c2)c1CN1CCCCC1` [Compound 839, N-(6-(1-Methyl-5-(piperidin-1-ylmethyl)-1H-pyrazol-4-yl)isoquinolin-3-yl) tetrahydro-2H-pyran-4-carboxamide], the EC50 was 776 nM in experiment [1]; 3.8 nM in experiment [2]; 17 nM in experiment [3]; 254 nM in experiment [4] (setting [8]); 1180 nM in experiment [5]; 3280 nM in experiment [7].

For `CCN(CC)c1ncc(-c2ccc3cnc(NC(=O)CN4CCC(F)CC4)cc3c2)s1` [Compound 1047, N-(6-(2-(Diethylamino)thiazol-5-yl)isoquinolin-3-yl)-2-(4-fluoropiperidin-1-yl)acetamide], the inhibition at 10 µM in experiment [1] was found to be 32.6%; in experiment [5], 41.7%; in experiment [7], 4.5%. Moreover, the concentration for a half-maximal effect (EC50) was above 10000 nM in experiment [1]; 463 nM in experiment [2]; 4740 nM in experiment [3]; above 10000 nM in experiment [4] (setting [8]); above 10000 nM in experiment [5]; above 10000 nM in experiment [7].

On to `Cc1ncc(-c2ccc3cnc(NC(=O)[C@H]4CC[C@H](N(C)C)CC4)cc3c2)o1` [Compound 1082, trans-4-(Dimethylamino)-N-(6-(2-methyloxazol-5-yl)isoquinolin-3-yl) cyclohexane-1-carboxamide], for which the concentration for a half-maximal effect (EC50) was determined as 9900 nM in experiment [1]; 10.2 nM in experiment [2]; 210 nM in experiment [3]; 1100 nM in experiment [4] (setting [8]); 7100 nM in experiment [5]; 2930 nM in experiment [7].

`CN(C)C1CCC(C(=O)Nc2cc3cc(-c4cnn(C)c4)ccc3cn2)CC1` (stereo in doubt) [Compound 1081, trans-4-(Dimethylamino)-N-(6-(1-methyl-1H-pyrazol-4-yl)isoquinolin-3-yl)cyclohexane-1-carboxamide]: the EC50 in experiment [1] came to 2730 nM; in experiment [2], 2.2 nM; in experiment [3], 82 nM; in experiment [4] (setting [8]) it was 470 nM; in experiment [5], 4650 nM; in experiment [7], 1100 nM.

As to `Cn1ncc(-c2ccc3cnc(NC(=O)[C@H]4CC[C@H](CO)CC4)cc3c2)c1CN1CCCCC1` [Compound 798, trans-4-(Hydroxymethyl)-N-(6-(1-methyl-5-(piperidin-1-ylmethyl)-1H-pyrazol-4-yl)isoquinolin-3-yl)cyclohexane-1-carboxamide], the EC50 in experiment [1] came to 594 nM; in experiment [2], 3.1 nM; in experiment [3], 31 nM; in experiment [4] (setting [8]), 320 nM; in experiment [5], 613 nM; in experiment [7], 1270 nM.
